Patent publication US20080008745A1, “Transdermal delivery of naltrexone hydrochloride, naltrexol hydrochloride, and bis(hydroxy-methyl)propionyl-3-0 ester naltrexone using microneedles” (UNIVERSITY OF KENTUCKY RESEARCH FOUNDATION, priority 2006, published 2008)
≈ marks a conversion by molar mass, not a printed value. Counter-ions that a name gives are not always drawn. Like-named read-outs stand apart in the source and are kept apart here.

Tests used:
[1] = In vitro skin diffusion study, flow-through diffusion cell, guinea pig skin
Protocol: Hairless guinea pig skin was harvested from euthanitized animals. Animal studies were approved by the University of Kentucky IACUC. Human skin harvested during abdominoplasty was used for the diffusion studies. Human tissue use was approved by the University of Kentucky Institutional Review Board. Skin sections were obtained by removing the subcutaneous fatty tissue by scalpel dissection and stored at −20° C. A PermeGear flow-through (In-Line, Riegelsville, Pa.) diffusion cell system was used for the skin permeation studies. Skin used for microneedle treatment was placed on a wafer of polydimethylsiloxane polymer, which mimicked the underlying resistance of tissue. The skin was poked 20 times with an array containing 5 MN before mounting the skin in the diffusion cell. Untreated skin samples were simply placed in the diffusion cells. Diffusion cells were kept at 32° C. with a circulating water bath. Data was collected by using skin from a single donor with three cells for untreated formulations and three to four cells for the MN treated formulations. The receiver solution was HEPES-buffered Hanks' balanced salts with gentamicin at pH 7.4, and the flow rate was adjusted to 1.1 mL/h. Each cell was charged with 0.25 mL of the respective drug solution. […] All samples were stored at 4° C. until processed by solid phase extraction.
The cumulative quantity of drug collected in the receiver compartment was plotted as a function of time. The flux value for a given experiment was obtained from the slope of the steady state portion of the cumulative amount of drug permeated, plotted over time. Apparent permeability coefficient values were calculated from Fick's First Law of diffusion: [formula]
Sink conditions were maintained in the receiver solution for the duration of the experiment, so ΔC was approximated by the drug concentration in the donor compartment.
The HPLC analysis was performed as described by Vaddi et al., Pharm. Res. 22 (2005) 758-765. The HPLC system consisted of a Waters 717plus autosampler, a Waters 1525 Binary HPLC pump, and a Waters 2487 Dual λ Absorbance detector with Waters Breeze software. A Brownlee C-18 reversed-phase Spheri-5 μm column (220×4.6 mm) with a C-18 reversed phase 7 μm guard column (15×3.2 mm) was used with the UV detector set at a wavelength of 215 nm. […] The mobile phase for Naltrexol consisted of 90:10 ACN:0.1% TFA adjusted to pH 3.0 with TEA. Samples were run for 10 min at 1 mL/min as described by Paudel et al., J. Pharm. Sci. 94 (2005) 1965-1975). One hundred microliters of sample was injected onto the column for both Naltrexone and Naltrexol. Samples were analyzed within the linear range of the standard curves.
The drugs were extracted from the buffer samples by solid phase extraction (30mg 1 cc Oasis® HLB, Waters Corp., Milford, Mass.) as described by Vaddi et al., Pharm. Res. 22 (2005) 758-765.
Before extracting the aqueous drug samples (5 mL), the cartridge was conditioned with 1 mL of methanol and 1 mL of nanopure water. After sample loading, the cartridge was washed with 1 mL of 5% methanol and the drug was eluted with ACN and analyzed by HPLC. A similar extraction method was employed for Naltrexol, except 2 mL of methanol was used in conditioning and 1 mL of nanopure water was also used to further wash the samples after being loaded onto the cartridge. The Naltrexol was eluted with 2 mL of isopropanol and finally with 1 mL ACN. Naltrexol samples were evaporated under nitrogen in a water bath maintained at 37° C. The samples were then reconstituted with 1 mL of ACN for HPLC analysis. Highly concentrated samples of Naltrexone and Naltrexol were further diluted 10 times in ACN.
The data obtained from the diffusion experiments were plotted as the cumulative amount of drug collected in the receiver compartment as a function of time.

[2] = In vitro skin diffusion study, flow-through diffusion cell, human skin; assay type: in vitro ADME; conditions: for Papp at 48 h: human; for Lag time / NTX Flux: Human skin
[3] = human skin, passive diffusion without MN (Paudel et al.); cited from earlier work
[4] = Solubility in 3:1 PG:Hanks' buffer; assay type: physicochemical; conditions: for Solubility in 3:1 PG:Hanks Buffer: 32° C., 24 h
Protocol: An excess of Naltrexone HCl (˜350 mg) was added to 1 mL of 3:1 PG:Hanks' buffer. The saturated solution was then vortexed for 1 min, sonicated for 15 min, and placed in an incubator at 32° C. for 24 h while shaking on a belly shaker. Just before filtering, a glass syringe and 0.45 μm filter were heated in an incubator to 32° C. The solution was filtered and diluted with ACN for high pressure liquid chromatography (HPLC) analysis.

[5] = Solubility or concentration of Naltrexol base in 3:1 H2O:PG after pH adjustment; assay type: physicochemical; conditions: for Concentration in 3:1 H2O:PG: concentration of drug in solution, freely soluble in the ionized form; for Solubility in 3:1 H2O:PG: pH adjusted
Protocol: 100 mg of Naltrexol base was prepared in 3:1 H2O:PG. The solution was briefly vortexed and sonicated for 10 min. To obtain a mixture of pH 8.5 Naltrexol base, 0.5 N sodium hydroxide was added incrementally. The same procedure was performed to obtain a pH 4.5 solution, except 0.5 M HCl was added dropwise. […] The solution was saturated with excess solid when the pH was raised above the first pKa (7.4) of Naltrexol base.

[6] = cited from earlier work
[7] = In vivo pharmacokinetics in hairless guinea pigs, gel with or without microneedles; set-up: species or system hairless guinea pig
Protocol: In vivo studies of hairless guinea pigs were performed in order to obtain pharmacokinetic parameters for guinea pigs treated with 26 mg Naltrexol base gel, MN application followed by 26 mg Naltrexol base gel, 285 mg Naltrexol HCl gel and MN application followed by 285 mg Naltrexol HCl. The base was saturated in gel whereas the hydrochloride salt remained soluble in solution.

[8] = No MN GP skin, listed as Naltrexone base
[9] = MN Treated GP skin, 100 mg/ml Naltrexone base equivalent in 3:1 PG:water, 48 hours
[10] = GP skin, MN Treated, High Dose, listed as Naltrexol pH 4.5
[11] = GP skin, No MN, High Dose, 3:1 H2O:PG
[12] = MN application followed by gel (26 mg base or 285 mg HCl)
[13] = no MN, gel (26 mg Naltrexol base or 285 mg Naltrexol HCl)

## O=C1CC[C@@]2(O)[C@H]3Cc4ccc(O)c5c4[C@@]2(CCN3CC2CC2)[C@H]1O5 [NTX Base, Naltrexone]
[1]; MN GP skin
  Lag time: 18.91 ± 4.49 h
[1]; MN GP skin, 3:1 PG:Hanks' buffer
  NTX Flux: 11.80 ± 5.02 nmol/cm^2/h
[1]; MN GP skin, 3:1 PG:Hanks' buffer, listed as Naltrexone base
  NTX Flux: 11.80±5.02 nmol/cm^2/h
[1]; MN GP skin, listed as Naltrexone base
  Lag time: 18.91 ± 4.49 h
[1]; No MN GP skin
  Lag time: 21.22 ± 3.91 h
  NTX Flux: 9.94 ± 2.75 nmol/cm^2/h
[1]; [8]
  Lag time: 21.22 ± 3.91 h
  NTX Flux: 9.94±2.75 nmol/cm^2/h
[2]; 10 cm^2 patch, passive diffusion without MN, at solubility limit
  Maximum daily dose: 0.4 mg
[2]; pH 7.4, microneedle-treated human skin, read-out: Permeability Kp (estimated) (converted)
  Papp at 48 h: 0.0194 ×10⁻⁶ cm/s
[3]
  Permeability: 0.03 ×10⁻⁶ cm/s
[4]; 3:1 PG:Hanks' buffer, 32 °C, aqueous with cosolvent or surfactant or cyclodextrin, thermodynamic from solid, Eq. 2, read-out: Solubility S used for theoretical dosing
  solubility at 24 h: 300 mg/mL (≈ 879 mM)
[4]; listed as Naltrexone base
  Solubility in 3:1 PG:Hanks Buffer: 43.6 mM (≈ 14900 µg/mL)

## CC(CO)(CO)C(=O)Oc1ccc2c3c1OC1C(=O)CCC4(O)C(C2)N(CC2CC2)CCC314 (centres unmarked) [NTX-Diol ester, bis(hydroxymethyl)propionyl-3-O-ester naltrexone]
[1]; [9]
  Flux: 71.98 ± 26.38 nmol/cm^2/h
  Lag time: 10.33 ± 7.95 h
[1]; MN treated GP skin
  Flux level relative to Naltrexone HCl with MN treatment: approximately twice

## O=C1CC[C@@]2(O)[C@H]3Cc4ccc(O)c5c4[C@@]2(CCN3CC2CC2)[C@H]1O5 [NTX-HCl, Naltrexone Hydrochloride]
[1]; GP skin, MN vs untreated
  Flux enhancement by MN treatment: 10 fold
[1]; MN GP skin, 3:1 PG:Hanks' buffer, Hydrochloride
  NTX Flux: 27.16 ± 4.57 nmol/cm^2/h
[1]; MN GP skin, 3:1 PG:Hanks' buffer, listed as Naltrexone HCl, Hydrochloride
  NTX Flux: 27.16±4.57 nmol/cm^2/h
[1]; MN GP skin, Hydrochloride
  Lag time: 2.41 ± 3.85 h
[1]; MN GP skin, listed as Naltrexone HCl, Hydrochloride
  Lag time: 2.41 ± 3.85 h
[1]; No MN GP skin, Hydrochloride
  Lag time: 22.38 ± 7.68 h
  NTX Flux: 2.71 ± 1.20 nmol/cm^2/h
[1]; No MN GP skin, listed as Naltrexone HCl, Hydrochloride
  Lag time: 22.38 ± 7.68 h
[2]; 10 cm^2 patch, MN-treated human skin, highest concentration measured
  Maximum daily dose (calculated from Eq. 2): 5.0 mg
[2]; MN
  Lag time: 12.06 ± 4.32 h
  NTX Flux: 18.54 ± 4.38 nmol/cm^2/h
[2]; No MN
  Lag time: 23.66 ± 2.74 h
  NTX Flux: 2.22 ± 0.72 nmol/cm^2/h
[2]; human skin, MN vs untreated, p<0.05
  Flux enhancement by MN treatment: 8 fold
[2]; pH 7.4, Human skin, MN, read-out: Permeability (converted)
  Papp at 48 h: 0.0194 ×10⁻⁶ cm/s
[2]; pH 7.4, Human skin, No MN, read-out: Permeability (converted)
  Papp at 48 h: 0.00233 ×10⁻⁶ cm/s
[2]; microneedle-treated human skin
  Permeability Kp (estimated): 0.0194 ×10⁻⁶ cm/s
[4]; Hydrochloride
  Solubility in 3:1 PG:Hanks Buffer: 794.4 mM

## Oc1ccc2c3c1O[C@H]1[C@H](O)CC[C@@]4(O)[C@@H](C2)N(CC2CC2)CC[C@]314 [NTXOL Base pH 4.5, 6-β-Naltrexol]
[1]; GP skin, MN Treated, High Dose
  Lag time: 6.58 ± 5.02 h
  NTXOL Flux: 35.07 ± 8.18 nmol/cm^2/h
[1]; [10]
  Lag time: 6.58 ± 5.02 h
  NTXOL Flux: 35.07±8.18 nmol/cm^2/h
[1]; GP skin, MN Treated, Low Dose
  Lag time: 10.33 ± 7.95 h
  NTXOL Flux: 71.98 ± 26.38 nmol/cm^2/h
[1]; GP skin, No MN, High Dose
  Lag time: 25.97 ± 5.50 h
[1]; [11]
  NTXOL Flux: 6.56 ± 6.49 nmol/cm^2/h
[1]; GP skin, No MN, High Dose, listed as Naltrexol pH 4.5
  Lag time: 25.97 ± 5.50 h
[1]; GP skin, No MN, Low Dose
  Lag time: 27.18 ± 1.31 h
  NTXOL Flux: 11.50 ± 4.20 nmol/cm^2/h
[1]; MN treated GP skin
  Flux enhancement relative to Naltrexone HCl: 1.3 fold
[5]; High Dose
  Concentration in 3:1 H2O:PG: **292.40 mM
[5]; Low Dose
  Concentration in 3:1 H2O:PG: **76.02 mM

## Oc1ccc2c3c1O[C@H]1[C@H](O)CC[C@@]4(O)[C@@H](C2)N(CC2CC2)CC[C@]314 [NTXOL Base pH 8.5, 6-β-Naltrexol]
[1]; GP skin, MN Treated, High Dose
  Lag time: 17.53 ± 6.56 h
  NTXOL Flux: 4.79 ± 2.62 nmol/cm^2/h
[1]; GP skin, MN Treated, Low Dose
  Lag time: 15.67 ± 6.96 h
  NTXOL Flux: 15.19 ± 7.33 nmol/cm^2/h
[1]; GP skin, No MN, High Dose
  Lag time: 24.34 ± 5.17 h
[1]; [11]
  NTXOL Flux: 1.36 ± 0.91 nmol/cm^2/h
[1]; GP skin, No MN, High Dose, listed as Naltrexol pH 8.5
  Lag time: 24.34 ± 5.17 h
[1]; GP skin, No MN, Low Dose
  Lag time: 25.37 ± 1.10 h
  NTXOL Flux: 8.77 ± 4.08 nmol/cm^2/h
[5]
  Solubility in 3:1 H2O:PG: 2.69 mM (≈ 924 µg/mL)
[5]; listed as Naltrexol base at pH 8.5
  Solubility in 3:1 H2O:PG: 2.92 mM (≈ 1000 µg/mL)

## Oc1ccc2c3c1O[C@H]1[C@H](O)CC[C@@]4(O)[C@@H](C2)N(CC2CC2)CC[C@]314 [NTXOL Base, 6-β-Naltrexol]
[6]
  first pKa: 7.4
[7]; [12]
  AUC: 303.1 ng·h/mL
  Cmax: 8.5 ng/mL
  Css: 5.04 ± 2.57 ng/mL
  Tlag: 0.7 h
  Tmax: 0.7 h
[7]; [13]
  AUC: 50.5 ± 10.1 ng·h/mL
  Cmax: 1.7 ± 0.5 ng/mL
  Css: 0.95 ± 0.41 ng/mL
  Tlag: 5.2 ± 1.6 h
  Tmax: 40.1 ± 11.7 h

## Cl.Oc1ccc2c3c1O[C@H]1[C@H](O)CC[C@@]4(O)[C@@H](C2)N(CC2CC2)CC[C@]314 [NTXOL HCl, Naltrexol Hydrochloride]
[1]; MN treated skin, earlier experiment
  Flux: 36.12±1.77 nmol/cm^2/h
[1]; untreated skin, earlier experiment
  Flux: 2.75±1.38 nmol/cm^2/h
[7]; MN and gel therapy, FIG. 8
  Plasma concentrations compared to no microneedles and Naltrexol base: markedly higher
[7]; [12]
  AUC: 1349 ± 616 ng·h/mL
  Cmax: 48.5 ± 18.8 ng/mL
  Css: 21.3 ± 6.9 ng/mL
  Tlag: 0.7 ± 0.3 h
  Tmax: 19.2 ± 11.5 h
[7]; [13]
  AUC: 24.4 ng·h/mL
  Cmax: 4.1 ng/mL
  Css: 1.8 ± 1.68 ng/mL
  Tlag: 1 h
  Tmax: 7.0 h
